Results: PubChem BioAssay (NCI)
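96-well plates; 48 h exposure; 5 concentrations. Endpoints by linear interpolation between flanking doses. Not reached: highest tested concentration assigned. At the TGI there is no net growth.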 Where a SMILES comes first, the peptide text is derived from it. The star is where a group is joined. Boc = CC(C)(C)OC(=O)*

Tests used:
Test in all cases: growth of human tumour cells (NCI), 48 h
SR leukemia = test system: SR leukemia
LOX IMVI melanoma = test system: LOX IMVI melanoma
A498 renal = test system: A498 renal
SK-MEL-2 melanoma = test system: SK-MEL-2 melanoma
RPMI-8226 leukemia = test system: RPMI-8226 leukemia
SF-295 CNS = test system: SF-295 CNS
SK-OV-3 ovarian = test system: SK-OV-3 ovarian
786-0 renal = test system: 786-0 renal
ACHN renal = test system: ACHN renal
K-562 leukemia = test system: K-562 leukemia
NCI-H23 lung = test system: NCI-H23 lung
SW-620 colon = test system: SW-620 colon
HOP-92 NSCLC = test system: HOP-92 NSCLC
UO-31 renal = test system: UO-31 renal
MDA-MB-435 = test system: MDA-MB-435
HL-60(TB) leukemia = test system: HL-60(TB) leukemia
UACC-62 melanoma = test system: UACC-62 melanoma
COLO 205 colon = test system: COLO 205 colon
IGROV1 ovarian = test system: IGROV1 ovarian
BT-549 breast = test system: BT-549 breast
PC-3 prostate = test system: PC-3 prostate
HS 578T breast = test system: HS 578T breast
DU-145 prostate = test system: DU-145 prostate
U251 CNS = test system: U251 CNS
HCT-15 colon = test system: HCT-15 colon
HT29 colon = test system: HT29 colon
MDA-N = test system: MDA-N
MCF7 breast = test system: MCF7 breast
HCT-116 colon = test system: HCT-116 colon
SK-MEL-28 melanoma = test system: SK-MEL-28 melanoma
KM12 colon = test system: KM12 colon
HCC-2998 colon = test system: HCC-2998 colon
OVCAR-8 ovarian = test system: OVCAR-8 ovarian
EKVX NSCLC = test system: EKVX NSCLC
SK-MEL-5 melanoma = test system: SK-MEL-5 melanoma
CAKI-1 renal = test system: CAKI-1 renal
TK-10 renal = test system: TK-10 renal
A549 NSCLC = test system: A549 NSCLC
M14 melanoma = test system: M14 melanoma
OVCAR-5 ovarian = test system: OVCAR-5 ovarian
NCI-H226 lung = test system: NCI-H226 lung
SNB-75 CNS = test system: SNB-75 CNS
OVCAR-3 ovarian = test system: OVCAR-3 ovarian
SNB-19 CNS = test system: SNB-19 CNS
UACC-257 melanoma = test system: UACC-257 melanoma
MDA-MB-231 breast = test system: MDA-MB-231 breast
OVCAR-4 ovarian = test system: OVCAR-4 ovarian
NCI/ADR-RES ovarian = test system: NCI/ADR-RES ovarian
SN12C renal = test system: SN12C renal
NCI-H522 lung = test system: NCI-H522 lung
MALME-3M melanoma = test system: MALME-3M melanoma
CCRF-CEM leukemia = test system: CCRF-CEM leukemia
HOP-62 NSCLC = test system: HOP-62 NSCLC
MOLT-4 leukemia = test system: MOLT-4 leukemia
SF-268 CNS = test system: SF-268 CNS
NCI-H460 lung = test system: NCI-H460 lung
T-47D breast = test system: T-47D breast
SF-539 CNS = test system: SF-539 CNS
RXF 393 renal = test system: RXF 393 renal

SMILES: C[C@@]1(CCCCCCCCCCc2ccccc2)C[C@@]2(C)OC(=O)C[C@H]2OO1
- TGI (SR leukemia): 2.97 µM
- TGI (LOX IMVI melanoma): 34.6 µM
- TGI (A498 renal): 40.8 µM
- TGI (SK-MEL-2 melanoma): 45 µM
- TGI (RPMI-8226 leukemia): 5.36 µM
- TGI (SF-295 CNS): 4.97 µM
- TGI (SK-OV-3 ovarian): 73.3 µM
- TGI (786-0 renal): 32.9 µM
- TGI (ACHN renal): 4.88 µM
- TGI (K-562 leukemia): 13.6 µM
- TGI (NCI-H23 lung): 2.9 µM
- TGI (SW-620 colon): 40.7 µM
- TGI (HOP-92 NSCLC): 2.16 µM
- TGI (UO-31 renal): 49.9 µM
- TGI (MDA-MB-435): 3.4 µM
- TGI (HL-60(TB) leukemia): 35.8 µM
- TGI (UACC-62 melanoma): 4.35 µM
- TGI (COLO 205 colon): 3.37 µM
- TGI (IGROV1 ovarian): 53.3 µM
- TGI (BT-549 breast): 0.979 µM
- TGI (PC-3 prostate): 4.41 µM
- TGI (HS 578T breast): 7.13 µM
- TGI (DU-145 prostate): > 4.64 µM
- TGI (U251 CNS): 33.1 µM
- TGI (HCT-15 colon): 44.3 µM
- TGI (HT29 colon): 31.5 µM
- TGI (MDA-N): 3.96 µM
- TGI (MCF7 breast): 35 µM
- TGI (HCT-116 colon): 32.5 µM
- TGI (SK-MEL-28 melanoma): 4.2 µM
- TGI (KM12 colon): 38.6 µM
- TGI (HCC-2998 colon): 3.41 µM
- TGI (OVCAR-8 ovarian): 31.7 µM
- TGI (EKVX NSCLC): 7.2 µM
- TGI (SK-MEL-5 melanoma): 2.26 µM
- TGI (CAKI-1 renal): > 84.1 µM
- TGI (TK-10 renal): 7.28 µM
- TGI (A549 NSCLC): > 84.6 µM
- TGI (M14 melanoma): 2.98 µM
- TGI (OVCAR-5 ovarian): 3.94 µM
- TGI (NCI-H226 lung): 10.9 µM
- TGI (SNB-75 CNS): 6.79 µM
- TGI (OVCAR-3 ovarian): 34.6 µM
- TGI (SNB-19 CNS): 5.24 µM
- TGI (UACC-257 melanoma): 4.55 µM
- TGI (MDA-MB-231 breast): 36.4 µM
- TGI (OVCAR-4 ovarian): 5.03 µM
- TGI (NCI/ADR-RES ovarian): 55.8 µM
- TGI (SN12C renal): 10.4 µM
- TGI (NCI-H522 lung): 4.12 µM
- TGI (MALME-3M melanoma): 3 µM
- TGI (CCRF-CEM leukemia): 3.34 µM
- TGI (HOP-62 NSCLC): 35.3 µM
- TGI (MOLT-4 leukemia): 2.88 µM
- TGI (SF-268 CNS): 7.95 µM
- TGI (NCI-H460 lung): 5.06 µM
- TGI (T-47D breast): 7.32 µM
- TGI (SF-539 CNS): 2.58 µM
- TGI (RXF 393 renal): 54.3 µM

SMILES: Oc1c(CN2CCCC2)ccc2cccnc12
- TGI (SR leukemia): > 100 µM
- TGI (LOX IMVI melanoma): 60.5 µM
- TGI (A498 renal): > 70.3 µM
- TGI (SK-MEL-2 melanoma): > 95.6 µM
- TGI (RPMI-8226 leukemia): 48.2 µM
- TGI (SF-295 CNS): > 100 µM
- TGI (SK-OV-3 ovarian): > 96.2 µM
- TGI (786-0 renal): > 100 µM
- TGI (ACHN renal): 59.5 µM
- TGI (K-562 leukemia): > 100 µM
- TGI (NCI-H23 lung): 99.6 µM
- TGI (SW-620 colon): > 100 µM
- TGI (HOP-92 NSCLC): > 100 µM
- TGI (UO-31 renal): 14.1 µM
- TGI (MDA-MB-435): > 100 µM
- TGI (HL-60(TB) leukemia): > 53.9 µM
- TGI (UACC-62 melanoma): > 100 µM
- TGI (COLO 205 colon): 71.5 µM
- TGI (IGROV1 ovarian): > 84.5 µM
- TGI (BT-549 breast): > 100 µM
- TGI (PC-3 prostate): > 100 µM
- TGI (HS 578T breast): > 100 µM
- TGI (DU-145 prostate): > 100 µM
- TGI (U251 CNS): > 100 µM
- TGI (HCT-15 colon): > 41.2 µM
- TGI (HT29 colon): > 69 µM
- TGI (MDA-N): > 100 µM
- TGI (MCF7 breast): > 100 µM
- TGI (HCT-116 colon): > 100 µM
- TGI (SK-MEL-28 melanoma): > 100 µM
- TGI (KM12 colon): > 100 µM
- TGI (HCC-2998 colon): > 100 µM
- TGI (OVCAR-8 ovarian): 32.4 µM
- TGI (EKVX NSCLC): > 100 µM
- TGI (SK-MEL-5 melanoma): > 67.7 µM
- TGI (CAKI-1 renal): 60.8 µM
- TGI (TK-10 renal): 88.7 µM
- TGI (A549 NSCLC): > 100 µM
- TGI (M14 melanoma): 80.7 µM
- TGI (OVCAR-5 ovarian): > 100 µM
- TGI (NCI-H226 lung): > 64 µM
- TGI (SNB-75 CNS): > 100 µM
- TGI (OVCAR-3 ovarian): > 82.7 µM
- TGI (SNB-19 CNS): > 31.6 µM
- TGI (UACC-257 melanoma): > 100 µM
- TGI (MDA-MB-231 breast): > 100 µM
- TGI (OVCAR-4 ovarian): > 100 µM
- TGI (NCI/ADR-RES ovarian): 8.23 µM
- TGI (SN12C renal): > 83.5 µM
- TGI (NCI-H522 lung): > 100 µM
- TGI (MALME-3M melanoma): > 100 µM
- TGI (CCRF-CEM leukemia): > 73.6 µM
- TGI (HOP-62 NSCLC): > 65.8 µM
- TGI (MOLT-4 leukemia): > 100 µM
- TGI (SF-268 CNS): > 100 µM
- TGI (NCI-H460 lung): > 84.6 µM
- TGI (T-47D breast): > 100 µM
- TGI (SF-539 CNS): > 78.5 µM
- TGI (RXF 393 renal): > 100 µM

SMILES: COC(=O)C(Cc1ccccc1)NC(=O)C(CS)NC(=O)OC(C)(C)C (stereo not drawn) (Boc-Cys-Phe-OMe; configuration not given here)
- TGI (SR leukemia): > 100 µM
- TGI (LOX IMVI melanoma): > 100 µM
- TGI (A498 renal): > 100 µM
- TGI (SK-MEL-2 melanoma): > 100 µM
- TGI (RPMI-8226 leukemia): > 100 µM
- TGI (SF-295 CNS): > 100 µM
- TGI (SK-OV-3 ovarian): > 100 µM
- TGI (786-0 renal): > 100 µM
- TGI (ACHN renal): > 100 µM
- TGI (K-562 leukemia): > 100 µM
- TGI (NCI-H23 lung): > 100 µM
- TGI (SW-620 colon): > 100 µM
- TGI (HOP-92 NSCLC): > 100 µM
- TGI (UO-31 renal): > 100 µM
- TGI (MDA-MB-435): > 100 µM
- TGI (HL-60(TB) leukemia): > 100 µM
- TGI (UACC-62 melanoma): > 100 µM
- TGI (COLO 205 colon): > 100 µM
- TGI (IGROV1 ovarian): > 100 µM
- TGI (BT-549 breast): > 100 µM
- TGI (PC-3 prostate): > 100 µM
- TGI (HS 578T breast): > 100 µM
- TGI (DU-145 prostate): > 100 µM
- TGI (U251 CNS): > 100 µM
- TGI (HCT-15 colon): > 100 µM
- TGI (HT29 colon): > 100 µM
- TGI (MDA-N): > 100 µM
- TGI (MCF7 breast): > 100 µM
- TGI (HCT-116 colon): > 100 µM
- TGI (SK-MEL-28 melanoma): > 100 µM
- TGI (KM12 colon): > 100 µM
- TGI (HCC-2998 colon): > 100 µM
- TGI (OVCAR-8 ovarian): > 100 µM
- TGI (EKVX NSCLC): > 100 µM
- TGI (SK-MEL-5 melanoma): > 100 µM
- TGI (CAKI-1 renal): > 100 µM
- TGI (TK-10 renal): > 100 µM
- TGI (A549 NSCLC): > 100 µM
- TGI (M14 melanoma): > 100 µM
- TGI (OVCAR-5 ovarian): > 100 µM
- TGI (NCI-H226 lung): > 100 µM
- TGI (SNB-75 CNS): > 100 µM
- TGI (OVCAR-3 ovarian): > 100 µM
- TGI (SNB-19 CNS): > 100 µM
- TGI (UACC-257 melanoma): > 100 µM
- TGI (MDA-MB-231 breast): > 100 µM
- TGI (OVCAR-4 ovarian): > 100 µM
- TGI (NCI/ADR-RES ovarian): > 100 µM
- TGI (SN12C renal): > 100 µM
- TGI (NCI-H522 lung): > 100 µM
- TGI (MALME-3M melanoma): > 100 µM
- TGI (CCRF-CEM leukemia): 89.3 µM
- TGI (HOP-62 NSCLC): > 100 µM
- TGI (MOLT-4 leukemia): 41.3 µM
- TGI (SF-268 CNS): > 100 µM
- TGI (NCI-H460 lung): > 100 µM
- TGI (T-47D breast): > 100 µM
- TGI (SF-539 CNS): > 100 µM
- TGI (RXF 393 renal): > 100 µM
